# Test results as given in US8541428B2, “Heterocyclic derivatives, pharmaceutical compositions and methods of use thereof” (Technion Research and Development Foundation Ltd., priority 2006, dated 2013).
# Columns and labels:
# [1] = target: peripheral-type benzodiazepine receptor (PBR) (Homo sapiens, UniProt P30536); experiment: PBR binding assay, [3H]PK 11195 radio-assay (competition with radioactive standard ligand); conditions: for binding to PBR (in words): [3H]PK 11195 radio-assay
# Description: Briefly, the assay utilizes radioactive standard ligand [^3H] PK 11195 (1-(2-chlorophenyl)-N-methyl-N-(1-methyl-propyl)-3-isoquinolinecarboxamide), and measures the ability of the compounds of the invention to compete with standard ligand in binding to PBR. Total radioactive binding was determined by measuring the radioactivity of the radioactive ligand-receptor complex, obtained in the reaction of radioactive standard with the PBR. Radioactive standard and the examined ligand were added to the PBR and after some incubation time the radioactivity of the resulting ligand-receptor complexes was measured with the help of […]. This radioactivity indicates the binding of the radioactive standard to PBR. […] For an easier interpretation of our results, the binding was expressed in percentage of radioactive ligand binding. The lower the number, the better the binding of the examined ligand to PBR. Western blot analysis can be used to see which components of the PBR-complex may be important for the efficacy of the new PBR ligands, according to methods described previously [Levin E et al. 2005; Kuznetsov V et al. 2005; Weisinger G et al. Biochemistiy 2004].
# C6 glioma cell line [2] = experiment: Apoptotic levels in C6 glioma cell line (control and IBP knockdown); assay type: cell-based, rat; conditions: for increase of apoptotic levels: control cells; for apoptotic effects in IBP knockdown cell line: IBP knockdown cells, FGIN-1-27 10^-5M, ErPC 10^-4M
# Source text: Cell death, including apoptosis. The Cell Death Detection ELISA^PLUS kit of Roche Molecular Biochemicals (Mannheim, Germany) was used to determine the effects on apoptosis by the new PBR ligands, in particular the one of the present description, according to methods described previously [Veenman L et al. 2005; Levin E et al. 2005]. Also, the Trypan blue method was applied in order to determine the cell viability after application of the new PBR ligands, according to methods described previously [Veenman L et al. 2005; Levin E et al. 2005]. Cell death including apoptosis of neural cells is induced by glutamate and Abeta, according to methods described previously [Michal Gaitner, M. Sc. thesis, 2004].
# C6 glioma cell line [3] = experiment: Mitochondrial membrane potential decrease in C6 glioma cell line (control and IBP knockdown); assay type: cell-based, rat; conditions: 10^-4M
# Description: Mitochondrial membrane potential and mitochondrial volume measurement. To see whether the new PBR ligand is able to prevent opening of the mitochondrial permeability transition pore to prevent apoptosis changes in the mitochondrial volume and potential are measured, as described previously [Maaser K, Br J Cancer 2001;85:1771-1780].
# PBR-complex = PBR-complex (Homo sapiens, UniProt P30536); conditions: displacement of [3H]Ro5 4864; cited from earlier work
# [4] = modulation of PBR composition, seizures; cited from earlier work
# Chain of peripheral-type benzodiazepine receptor (PBR) (P30536 whole entry, species assumed): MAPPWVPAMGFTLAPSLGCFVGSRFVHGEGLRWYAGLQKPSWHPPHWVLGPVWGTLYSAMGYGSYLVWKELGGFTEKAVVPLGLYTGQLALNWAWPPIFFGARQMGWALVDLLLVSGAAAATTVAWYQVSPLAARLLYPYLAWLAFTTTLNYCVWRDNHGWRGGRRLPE
# Chain of PBR-complex (P30536 whole entry, one chain of several): as the sequence (P30536 whole entry, species assumed) above
structure (smiles),measurement,setting,value
"CCN(CC)C(=O)C(C)(C)c1nc2ccccc2nc1-c1ccccc1 [Compound 5, N,N-Diethyl-2-(3-phenyl-quinoxalin-2-yl)-isobutyramide]",binding to PBR (in words),[1],best binding
"CN(C)C(=O)Oc1nc(-c2ccccc2)nc2ccccc12 [Compound 9a, Dimethyl-carbamic acid 2-phenyl-quinazolin-4-yl ester]",binding to PBR (in words),[1],good binding properties
"CC(C)N(C(=O)n1c(-c2ccccc2)nc2ccccc2c1=O)C(C)C [Compound 10b, 4-Oxo-2-phenyl-4H-quinazoline-3-carboxylic acid diisopropylamide]",binding to PBR (in words),[1],good binding properties
"CCN(CC)C(=O)Cc1nc(-c2ccccc2)nc2ccccc12 [Compound 12b, N,N-Diethyl-2-(2-phenyl-quinazolin-4-yl)-acetamide]",radioactive standard remained bound to PBR (percentage of radioactive ligand binding),"[1]; [3H]PK 11195, the lower the number, the better the binding",14%
same,binding to PBR (in words),[1],good binding properties
"CC(C)N(C(=O)Cc1nc(-c2ccccc2)nc2ccccc12)C(C)C [Compound 12c, N,N-Diisopropyl-2-(2-phenyl-quinazolin-4-yl)-acetamide]",binding to PBR (in words),[1],good binding properties
CCCCCCCC/C=C\CCCCCCCCCCCCOP(=O)([O-])OCC[N+](C)(C)C [ErPC],increase of apoptotic levels,C6 glioma cell line [2]; 10^-4M,7-8 fold
same,apoptotic effects in IBP knockdown cell line,C6 glioma cell line [2],completely abolished
same,effects on mitochondrial potential in IBP knockdown cell line,C6 glioma cell line [3]; IBP knockdown cell line (as 3.7),completely abolished
same,enhancement of mitochondrial membrane potential decrease,C6 glioma cell line [3]; control cells vs vehicle treated control cells,6 fold
CCCCCCN(CCCCCC)C(=O)Cc1c(-c2ccc(F)cc2)[nH]c2ccccc12 [FGIN-1-27],increase of apoptotic levels,C6 glioma cell line [2]; 10^-5M,2 fold
same,apoptotic effects in IBP knockdown cell line,C6 glioma cell line [2],completely abolished
same,Ki,PBR-complex,4.4 ± 0.1 nM
"CCC(C)N(C)C(=O)c1cc2ccccc2c(-c2ccccc2Cl)n1 (centres unmarked) [PK 11195, 1-(2-chlorophenyl)-N-methyl-N-(1-methyl-propyl)-3-isoquinolinecarboxamide]",effect on consequences of kainic acid injections,[4],prevented the effects of kainic acid injections
